± gives the uncertainty stated by the source.
Assay: xn = mol fraction of the nth substance listed

CCNCC + CCCCCCCCCO
viscosity [mPa·s], 100 kPa
Details	x1 = 0.0799	x1 = 0.1586	x1 = 0.2389	x1 = 0.3485	x1 = 0.4391	x1 = 0.5594	x1 = 0.649	x1 = 0.7395	x1 = 0.8499	x1 = 0.9397
293.15 K	10.36 ± 0.83	9.36 ± 0.75	8.35 ± 0.67	7.05 ± 0.57	5.99 ± 0.48	4.66 ± 0.37	3.71 ± 0.3	2.79 ± 0.22	1.71 ± 0.14	0.87 ± 0.07
303.15 K	7.11 ± 0.57	6.4 ± 0.51	5.7 ± 0.46	4.78 ± 0.38	4.05 ± 0.33	3.14 ± 0.25	2.5 ± 0.2	1.88 ± 0.15	1.17 ± 0.1	0.63 ± 0.05
313.15 K	5.05 ± 0.41	4.53 ± 0.36	4.03 ± 0.32	3.37 ± 0.27	2.85 ± 0.23	2.21 ± 0.18	1.77 ± 0.14	1.34 ± 0.11	0.85 ± 0.07	0.49 ± 0.04
323.15 K	3.71 ± 0.3	3.34 ± 0.27	2.97 ± 0.24	2.49 ± 0.2	2.12 ± 0.17	1.65 ± 0.13	1.33 ± 0.11	1.02 ± 0.08	0.67 ± 0.05	0.4 ± 0.03

Nc1ccccc1 + CN1CCCC1=O
viscosity [mPa·s], 101 kPa
Details	x2 = 0.0954	x2 = 0.1918	x2 = 0.2892	x2 = 0.3876	x2 = 0.487	x2 = 0.5875	x2 = 0.689	x2 = 0.7915	x2 = 0.8952
303.15 K	2.963 ± 0.029	2.89 ± 0.029	2.81 ± 0.028	2.705 ± 0.028	2.55 ± 0.027	2.34 ± 0.026	2.15 ± 0.025	1.964 ± 0.025	1.76 ± 0.024
308.15 K	2.57 ± 0.027	2.51 ± 0.027	2.445 ± 0.027	2.34 ± 0.026	2.187 ± 0.025	2.035 ± 0.025	1.875 ± 0.024	1.736 ± 0.024	1.571 ± 0.023
313.15 K	2.25 ± 0.026	2.2 ± 0.026	2.13 ± 0.025	2.05 ± 0.025	1.95 ± 0.025	1.83 ± 0.024	1.7 ± 0.024	1.58 ± 0.023	1.445 ± 0.023
318.15 K	1.99 ± 0.025	1.94 ± 0.025	1.89 ± 0.024	1.825 ± 0.024	1.735 ± 0.024	1.623 ± 0.023	1.52 ± 0.023	1.417 ± 0.023	1.309 ± 0.022

Nc1ccccc1 + Cc1ccccc1
viscosity [mPa·s], 101 kPa
Details	298.15 K	303.15 K	308.15 K	313.15 K
x1 = 0.0977	0.62 ± 0.011	0.576 ± 0.01	0.545 ± 0.01	0.495 ± 0.009
x1 = 0.1155	–	–	0.5602 ± 0.023	–
x1 = 0.116	0.5955 ± 0.0056	–	–	–
x1 = 0.198	0.701 ± 0.012	0.653 ± 0.012	0.615 ± 0.011	0.57 ± 0.01
x1 = 0.2272	0.681 ± 0.0063	–	–	–
x1 = 0.2298	–	–	0.7052 ± 0.029	–
x1 = 0.3004	0.814 ± 0.014	0.752 ± 0.013	0.72 ± 0.013	0.65 ± 0.012
x1 = 0.3224	–	–	0.7335 ± 0.03	–
x1 = 0.3354	0.8149 ± 0.0074	–	–	–
x1 = 0.3917	0.94 ± 0.016	0.867 ± 0.015	0.803 ± 0.014	0.74 ± 0.013
x1 = 0.4199	–	–	0.8736 ± 0.036	–
x1 = 0.4399	0.9747 ± 0.0088	–	–	–
x1 = 0.4993	1.146 ± 0.019	1.074 ± 0.018	0.954 ± 0.016	0.872 ± 0.015
x1 = 0.5404	1.169 ± 0.01	–	–	–
x1 = 0.5446	–	–	1.039 ± 0.042	–
x1 = 0.6003	1.406 ± 0.023	1.253 ± 0.02	1.139 ± 0.019	1.03 ± 0.017
x1 = 0.6191	–	–	1.19 ± 0.049	–
x1 = 0.6382	1.427 ± 0.013	–	–	–
x1 = 0.69	–	–	1.391 ± 0.057	–
x1 = 0.6978	1.723 ± 0.027	1.522 ± 0.024	1.367 ± 0.022	1.216 ± 0.02
x1 = 0.7815	–	–	1.647 ± 0.067	–
x1 = 0.8009	2.199 ± 0.034	1.907 ± 0.03	1.696 ± 0.027	1.486 ± 0.024
x1 = 0.835	–	–	1.891 ± 0.077	–
x1 = 0.8998	2.822 ± 0.043	2.423 ± 0.038	2.122 ± 0.033	1.863 ± 0.029

COCCOCCOCCOC + CCCCCCCO
101 kPa
Details	viscosity [mPa·s]
293.15 K, x1 = 0.05281	5.682 ± 0.06
293.15 K, x1 = 0.09018	5.069 ± 0.054
293.15 K, x1 = 0.2084	3.662 ± 0.039
293.15 K, x1 = 0.2924	3.185 ± 0.034
293.15 K, x1 = 0.4036	2.821 ± 0.03
293.15 K, x1 = 0.5165	2.541 ± 0.027
293.15 K, x1 = 0.5861	2.393 ± 0.026
293.15 K, x1 = 0.6984	2.25 ± 0.024
293.15 K, x1 = 0.8022	2.21 ± 0.024
293.15 K, x1 = 0.8977	2.195 ± 0.024
293.15 K, x1 = 0.9591	2.185 ± 0.024
303.15 K, x1 = 0.05495	4.164 ± 0.045
303.15 K, x1 = 0.08973	3.734 ± 0.04
303.15 K, x1 = 0.2069	2.83 ± 0.03
303.15 K, x1 = 0.2951	2.469 ± 0.027
303.15 K, x1 = 0.403	2.197 ± 0.024
303.15 K, x1 = 0.504	2.013 ± 0.022
303.15 K, x1 = 0.5851	1.916 ± 0.021
303.15 K, x1 = 0.705	1.813 ± 0.02
303.15 K, x1 = 0.7893	1.785 ± 0.019
303.15 K, x1 = 0.9012	1.776 ± 0.019
303.15 K, x1 = 0.9516	1.777 ± 0.019
313.15 K, x1 = 0.0542	3.158 ± 0.034
313.15 K, x1 = 0.09194	2.876 ± 0.031
313.15 K, x1 = 0.2077	2.266 ± 0.024
313.15 K, x1 = 0.2951	2 ± 0.022
313.15 K, x1 = 0.4053	1.782 ± 0.019
313.15 K, x1 = 0.5078	1.654 ± 0.018
313.15 K, x1 = 0.59	1.579 ± 0.017
313.15 K, x1 = 0.7035	1.515 ± 0.016
313.15 K, x1 = 0.795	1.483 ± 0.016
313.15 K, x1 = 0.9054	1.474 ± 0.016
313.15 K, x1 = 0.9487	1.471 ± 0.016

CC(C)(C)O + COC(C)(C)C
101.33 kPa
Details	viscosity [mPa·s]
303.15 K, x2 = 0.0443	2.726 ± 0.061
303.15 K, x2 = 0.0877	2.236 ± 0.051
303.15 K, x2 = 0.1262	1.894 ± 0.044
303.15 K, x2 = 0.1702	1.587 ± 0.037
303.15 K, x2 = 0.2519	1.192 ± 0.029
303.15 K, x2 = 0.2645	1.146 ± 0.028
303.15 K, x2 = 0.3232	0.9699 ± 0.024
303.15 K, x2 = 0.3619	0.8794 ± 0.022
303.15 K, x2 = 0.4504	0.7203 ± 0.019
303.15 K, x2 = 0.5434	0.5955 ± 0.016
303.15 K, x2 = 0.5686	0.5668 ± 0.015
303.15 K, x2 = 0.6631	0.4759 ± 0.013
303.15 K, x2 = 0.7872	0.3997 ± 0.012
303.15 K, x2 = 0.8887	0.3669 ± 0.011
303.15 K, x2 = 0.9442	0.3487 ± 0.011
313.15 K, x2 = 0.048	1.742 ± 0.041
313.15 K, x2 = 0.0499	1.73 ± 0.041
313.15 K, x2 = 0.0796	1.556 ± 0.037
313.15 K, x2 = 0.092	1.491 ± 0.036
313.15 K, x2 = 0.1717	1.149 ± 0.029
313.15 K, x2 = 0.2531	0.9105 ± 0.024
313.15 K, x2 = 0.267	0.878 ± 0.023
313.15 K, x2 = 0.3697	0.6901 ± 0.02
313.15 K, x2 = 0.4552	0.5827 ± 0.018
313.15 K, x2 = 0.5678	0.4803 ± 0.017
313.15 K, x2 = 0.6723	0.4109 ± 0.016
313.15 K, x2 = 0.7688	0.3634 ± 0.015
313.15 K, x2 = 0.8802	0.3241 ± 0.015
313.15 K, x2 = 0.9456	0.305 ± 0.015

CN(CCO)CCO + CCCCn1cc[n+](C)c1.F[B-](F)(F)F
Details	viscosity [mPa·s]
323.15 K, 101 kPa, x2 = 0.6997	20.65 ± 1.2

COCCOCCOCCO + CC1COC(=O)O1
298.15 K, 101.33 kPa
Details	viscosity [mPa·s]
x1 = 0.0048	2.514 ± 0.019
x1 = 0.015	2.563 ± 0.02
x1 = 0.0231	2.601 ± 0.02
x1 = 0.0338	2.645 ± 0.021
x1 = 0.0436	2.701 ± 0.021
x1 = 0.0626	2.807 ± 0.022
x1 = 0.0855	2.896 ± 0.023
x1 = 0.1268	3.064 ± 0.026
x1 = 0.1715	3.253 ± 0.028
x1 = 0.2173	3.462 ± 0.031
x1 = 0.2578	3.648 ± 0.034
x1 = 0.2932	3.814 ± 0.037
x1 = 0.3343	4.013 ± 0.04
x1 = 0.3636	4.167 ± 0.043
x1 = 0.406	4.368 ± 0.046
x1 = 0.445	4.559 ± 0.05
x1 = 0.4717	4.699 ± 0.052
x1 = 0.5024	4.844 ± 0.055
x1 = 0.5261	4.965 ± 0.058
x1 = 0.5629	5.143 ± 0.061
x1 = 0.6084	5.347 ± 0.066
x1 = 0.6548	5.581 ± 0.071
x1 = 0.6969	5.687 ± 0.074
x1 = 0.7326	5.831 ± 0.078
x1 = 0.7667	5.978 ± 0.082
x1 = 0.8023	6.05 ± 0.085
x1 = 0.8213	6.09 ± 0.086
x1 = 0.84	6.121 ± 0.088
x1 = 0.8547	6.173 ± 0.089
x1 = 0.88	6.194 ± 0.091
x1 = 0.8997	6.201 ± 0.092
x1 = 0.9173	6.208 ± 0.094

From the CheMixHub viscosity set
